Measurements from ChEMBL document CHEMBL4385660, “5-Chloro-2-thiophenyl-1,2,3-triazolylmethyldihydroquinolines as dual inhibitors of Mycobacterium tuberculosis and influenza virus: Synthesis and evaluation” (Bioorg Med Chem Lett, 2019).
Converted amounts (≈) assume the structure as drawn.

How the values were obtained:
[1] = Cytotoxicity in MDCK cells assessed as reduction in cell viability incubated for 48 hrs by MTT assay; assay type: cell-based, Canis lupus familiaris; settings: dog
Influenza A virus = test: Antiviral activity against Influenza A virus (A/Puerto Rico/8/1934(H1N1)) infected in MDCK cells assessed as reduction in virus titer using cells pre-treated with compound followed by virus infection for 24 hrs by hemagglutination test; assay type: functional, organism-based
[2] = tested on: Mycobacterium tuberculosis; test: Antimycobacterial against Mycobacterium tuberculosis H37Rv incubated for 7 days by MABA assay; assay type: functional; settings: 168 h
[3] = Selectivity index, ratio of CC50 for cytotoxicity in MDCK cells to IC50 for antiviral activity against Influenza A virus (A/Puerto Rico/8/1934(H1N1)) infected in MDCK cells; assay type: toxicity, cell-based; settings: dog, read-out: Ratio CC50/IC50
[4] = tested on: Mycobacterium tuberculosis; test: Antimycobacterial against Mycobacterium tuberculosis; assay type: functional

Row | Compound | CC50 at 48 h [1] [µg/mL] | IC50 (Influenza A virus) [µg/mL] | MIC [2] [µg/mL] | selectivity ratio [3] | MIC [4] [µg/mL]
1 | O=C1c2ccccc2C(=O)N1Cc1cn(CC2=C(Cl)c3ccc(-c4cccs4)nc3CC2)nn1 | > 300 | 200 (≈ 410 µM) | 25 (≈ 51.2 µM) | 2 | 
2 | CCC(CC)O[C@@H]1C=C(C(=O)O)C[C@H](N)[C@H]1NC(C)=O [OSELTAMIVIR CARBOXYLATE] | > 30 | 0.06 (≈ 0.211 µM) |  | > 500 | 
3 | O=C(O)c1cn(C2CC2)c2cc(N3CCNCC3)c(F)cc2c1=O [CIPROFLOXACIN] |  |  | 1.56 (≈ 4.71 µM) |  | 
4 | ClC1=C(Cn2cc(-c3cc4ccccc4c4ccccc34)nn2)CCc2nc(-c3cccs3)ccc21 | > 300 | > 300 | 25 (≈ 49.5 µM) | 1 | 
5 | O=[N+]([O-])c1ccc(-c2cn(CC3=C(Cl)c4ccc(-c5cccs5)nc4CC3)nn2)cc1 | 40 (≈ 88.9 µM) | > 30 | 12.5 (≈ 27.8 µM) | 1 | 
6 | CC(C)(C)c1nn(-c2cc(Cl)cc(Cl)c2OCc2cn(CC3=C(Cl)c4ccc(-c5cccs5)nc4CC3)nn2)c(=O)o1 | > 300 | > 300 | 25 (≈ 38.8 µM) | 1 | 
7 | CO[C@H]1/C=C/O[C@@]2(C)Oc3c(C)c(O)c4c(O)c(c(/C=N/N5CCN(C)CC5)c(O)c4c3C2=O)NC(=O)/C(C)=C\C=C\[C@H](C)[C@H](O)[C@@H](C)[C@@H](O)[C@@H](C)[C@H](OC(C)=O)[C@@H]1C [RIFAMPIN] |  |  | 0.2 (≈ 0.243 µM) |  | 
8 | CCCCCc1cn(CC2=C(Cl)c3ccc(-c4cccs4)nc3CC2)nn1 | 50 (≈ 125 µM) | 17 (≈ 42.6 µM) | 6.25 (≈ 15.7 µM) | 3 | 
9 | FC(F)(F)c1cc(-c2cn(CC3=C(Cl)c4ccc(-c5cccs5)nc4CC3)nn2)cc(C(F)(F)F)c1 | 35 (≈ 64.7 µM) | > 30 | 25 (≈ 46.2 µM) | 1 | 
10 | Fc1ccc(-c2cn(CC3=C(Cl)c4ccc(-c5cccs5)nc4CC3)nn2)c(F)c1 | 188 (≈ 426 µM) | 165 (≈ 374 µM) | 25 (≈ 56.7 µM) | 1 | 
11 | ClC1=C(Cn2cc(-c3ccc(Cl)c(Cl)c3)nn2)CCc2nc(-c3cccs3)ccc21 | > 300 | 26 (≈ 54.9 µM) | 25 (≈ 52.8 µM) | 12 | 
12 | CC(N)C12CC3CC(CC(C3)C1)C2 (configuration not stated) [RIMANTADINE] | 62 (≈ 346 µM) | 10 (≈ 55.8 µM) |  | 6 | 
13 | ClC1=C(Cn2cc(-c3ccsc3)nn2)CCc2nc(-c3cccs3)ccc21 | > 300 | 195 (≈ 475 µM) | 25 (≈ 60.8 µM) | 15 | 
14 | CN(C)CCc1ccc(-c2cc3cc(Br)ccc3nc2OCc2cccc3ccccc23)cc1 |  |  |  |  | 0.43 (≈ 0.841 µM)
15 | COc1ccc(-c2cn(CC3=C(Cl)c4ccc(-c5cccs5)nc4CC3)nn2)cc1 | > 300 | 160 (≈ 368 µM) | 25 (≈ 57.5 µM) | 2 | 
16 | FC(F)(F)Oc1ccc(-c2cn(CC3=C(Cl)c4ccc(-c5cccs5)nc4CC3)nn2)cc1 | > 300 | 65 (≈ 133 µM) | 25 (≈ 51.1 µM) | 5 | 
17 | CC(C)(C)c1ccc(-c2cn(CC3=C(Cl)c4ccc(-c5cccs5)nc4CC3)nn2)cc1 | 172 (≈ 373 µM) | 64 (≈ 139 µM) | 3.12 (≈ 6.77 µM) | 3 | 
18 | NNC(=O)c1ccncc1 [ISONIAZID] |  |  | 0.1 (≈ 0.729 µM) |  | 
19 | Fc1ccc(-c2cn(CC3=C(Cl)c4ccc(-c5cccs5)nc4CC3)nn2)cc1 | 100 (≈ 236 µM) | 80 (≈ 189 µM) | 12.5 (≈ 29.6 µM) | 1 | 
20 | FC(F)(F)c1ccccc1-c1cn(CC2=C(Cl)c3ccc(-c4cccs4)nc3CC2)nn1 | > 300 | 160 (≈ 338 µM) | 12.5 (≈ 26.4 µM) | 2 | 
21 | CN(C)Cc1ccc(-c2cc3cc(Br)ccc3nc2OCc2ccncc2)cc1 |  |  |  |  | 0.43 (≈ 0.959 µM)
22 | ClC1=C(Cn2cc(C3CC3)nn2)CCc2nc(-c3cccs3)ccc21 | > 300 | > 300 | 6.25 (≈ 16.9 µM) | 1 | 
23 | CC[C@@H](CO)NCCN[C@@H](CC)CO [ETHAMBUTOL] |  |  | 3.13 (≈ 15.3 µM) |  | 
